Reference: patent US12396961B2, “Compounds and compositions for intracellular delivery of agents” (ModernaTX, Inc., priority 2015, dated 2025)

How the values were obtained:
[1] = tested on: hEPO mRNA expression; experiment: Expression of hEPO in mice (CD-1); type: in vivo, CD-1 mice; settings: Table 7e; hEPO expression, CD-1 mice, 0.5 mpk
Excerpt: FIG. 12 is a set of graphs illustrating hEPO expression levels in CD-1 mice dosed with compounds of the disclosure, compared to MC3. PBS is used as control. […] In graphs A-C numbers 1-14 refer to compositions containing the following: 1: Compound 73, 2: Compound 80, 3: Compound 70; 4: Compound 81; 5: Compound 69; 6: Compound 82; 7: Compound 83; 8: Compound 62; 9: Compound 84; 10: Compound 85; 11: Compound 86; 12: Compound 87; 13: MC3; 14: PBS.
FIG. 13 is a graph showing hEPO levels (pg/mL) in CD-1 mice up to −25 h after administration of a nanoparticle composition containing compounds of the disclosure, compared to a composition containing MC3. Numbers 1-13 refer to compositions containing the following: 1: Compound 73, 2: Compound 80, 3: Compound 70; 4: Compound 81; 5: Compound 69; 6: Compound 82; 7: Compound 83; 8: Compound 62; 9: Compound 84; 10: Compound 85; 11: Compound 86; 12: Compound 87; 13: MC3. […]

[2] = tested on: luciferase (Luc) mRNA expression; experiment: Expression of Luc, bioluminescence (total flux) after intravenous administration to mice; type: in vivo; settings: mice i.v. 0.5 mg/kg; 3, 6, 24 hours
Procedure: In order to monitor how effectively various nanoparticle compositions deliver therapeutic and/or prophylactic agents to targeted cells, different nanoparticle compositions including a particular therapeutic and/or prophylactic agent (for example, a modified or naturally occurring RNA such as an mRNA) are prepared and administered to rodent populations. Mice are intravenously, intramuscularly, intraarterially, or intratumorally administered a single dose including a nanoparticle composition with a formulation such as those provided in Table 1. In some instances, mice may be made to inhale doses. Dose sizes may range from 0.001 mg/kg to 10 mg/kg, where 10 mg/kg describes a dose including 10 mg of a therapeutic and/or prophylactic agent in a nanoparticle composition for each 1 kg of body mass of the mouse. A control composition including PBS may also be employed.
Upon administration of nanoparticle compositions to mice, dose delivery profiles, dose responses, and toxicity of particular formulations and doses thereof can be measured by enzyme-linked immunosorbent assays (ELISA), bioluminescent imaging, or other methods. For nanoparticle compositions including mRNA, time courses of protein expression can also be evaluated. Samples collected from the rodents for evaluation may include blood, sera, and tissue (for example, muscle tissue from the site of an intramuscular injection and internal tissue); sample collection may involve sacrifice of the animals.
The efficacy of the nanoparticle compositions presented in Tables 1, la, 17-1, 19-1, 20-1 and 21-1 was evaluated with a bioluminescence study. Formulations were administered intravenously to mice (n=6) at a dosage of 0.5 mg/kg (mpk) and bioluminescence measured at 3, 6, and 24 hour time points. The standard MC3 formulation and a PBS control were evaluated for comparison.

[3] = tested on: hEPO mRNA expression; experiment: Expression of hEPO after intravenous administration to rats; type: in vivo; settings: rats i.v.; 3, 6, 24 hours
Procedure: PBS (phosphate buffered saline) is used as control.
Formulations were prepared according to Table 5 and included mRNA encoding hEPO.
[…] After the 48 hour time point, livers and spleens were harvested and frozen.

[4] = Particle size and polydispersity index (Zetasizer Nano ZS); type: physicochemical
Excerpt: Nanoparticle compositions may be characterized by a variety of methods. For example, microscopy (e.g., transmission electron microscopy or scanning electron microscopy) may be used to examine the morphology and size distribution of a nanoparticle composition. Dynamic light scattering or potentiometry (e.g., potentiometric titrations) may be used to measure zeta potentials. Dynamic light scattering may also be utilized to determine particle sizes. Instruments such as the Zetasizer Nano ZS (Malvern Instruments Ltd, Malvern, Worcestershire, UK) may also be used to measure multiple characteristics of a nanoparticle composition, such as particle size, polydispersity index, and zeta potential.
A Zetasizer Nano ZS (Malvern Instruments Ltd, Malvern, Worcestershire, UK) can be used to determine the particle size, the polydispersity index (PDI) and the zeta potential of the nanoparticle compositions in 1×PBS in determining particle size and 15 mM PBS in determining zeta potential.

[5] = tested on: luciferase (Luc) mRNA expression; experiment: Luc expression (AUC) in CD-1 mice relative to MC3; type: in vivo; settings: Luc expression relative to MC3, CD-1 mice
Procedure: FIG. 15 is a graph summarizing luciferase expression levels at 6 h after administration of nanoparticle compositions containing compounds of the disclosure to CD-1 mice at a dose of 0.5 mpk. Total light flux values were acquired via body luminescent imaging (BLI) 6 h after administration. In this Figure, the numbers 1-7 and 10 refer to the compositions containing Compounds 4-10 and MC3 respectively.
In contrast, hEPO expression in rats induced by administration of nanoparticle composition including compound according to one of formulae (I), (Ia1)-(Ia6), (Ib), (II), (IIa), (III), and (IIIa) was substantially lower than that measured for MC3. […] Table 7c and 7d show additional protein expressions and clearance data from compositions with various compounds disclosed herein as compared to with MC3.

[6] = Table 1, DOPE 40:20:38.5:1.5, Luc mRNA

SMILES	Lipid/MC3 AUC [1]	other results
CCCCCCCCCN(CCCOC(=O)CCCCC)CCC(=O)N1CCN(C(=O)CCN(CCCCCCCCC)CCN(CCCCCCCCC)CCCCCCCCC)CC1 [Compound 86, 3-((3-(4-(3-((2-(Dinonylamino)ethyl)(nonyl)amino)propanoyl)piperazin-1-yl)-3-oxopropyl)(nonyl)amino)propyl Hexanoate]	0.49	–
CCCCCCCCCN(CCCC(=O)OCCCCC)CCCC1CCN(C(=O)CCN(CCCCCCCCC)CCN(CCCCCCCCC)CCCCCCCCC)CC1 [Compound 84, Pentyl 4-((3-(1-(3-((2-(dinonylamino)ethyl)(nonyl)amino)propanoyl)piperidin-4-yl)propyl)(nonyl)amino)butanoate]	1.43	–
CCCCCCCCCCCCN(CCCCCCCCCCCC)CCN1CCN(Cc2ccc(OC)cc2)CC1 [Compound 19-5, N-Dodecyl-N-(2-(4-(4-methoxybenzyl)piperazin-1-yl)ethyl)dodecan-1-amine]	–	Total flux (Luc expression), comparison in words over the time points of the table named [2]: next highest flux
CCCCCCCCCN(CCCCCCCCC)CCCC1CCN(C(=O)CCN(CCCCCCCCC)CCN(CCCCCCCCC)CCCCCCCCC)CC1 [Compound 85, 3-((2-(Dinonylamino)ethyl)(nonyl)amino)-1-(4-(3-(dinonylamino)propyl)piperidin-1-yl)propan-1-one]	3.54	–
CCCCCCCCCN(CCCCCCCCC)CCC1CCN(C(=O)CN(CCCCCCCCC)CCN(CCCCCCCCC)CCCCCCCCC)C1 (stereo not drawn) [Compound 69, 2-((2-(Dinonylamino)ethyl)(nonyl)amino)-1-(3-(2-(dinonylamino)ethyl)pyrrolidin-1-yl)ethan-1-one]	6.52	–
CCCCCCCCCN(CCCC(=O)OCCCCC)CCC1CCN(C(=O)CN(CCCCCCCCC)CCN(CCCCCCCCC)CCCCCCCCC)C1 (stereo not drawn) [Compound 81, Pentyl 4-((2-(1-(N-(2-(dinonylamino)ethyl)-N-nonylglycyl)pyrrolidin-3-yl)ethyl)(nonyl)amino)butanoate]	3.01	–
CCCCCCCCCN(CCCC(=O)OCCCCC)CCC1CCN(C(=O)CN(CCCCCCCCC)CCN(CCCCCCCCC)CCCCCCCCC)CC1 [Compound 83, Pentyl 4-((2-(1-(N-(2-(dinonylamino)ethyl)-N-nonylglycyl)piperidin-4-yl)ethyl)(nonyl)amino)butanoate]	1.46	–
CCCCCCCC/C=C\CCCCCCCCN(CCO)CCCCCCCC/C=C\CCCCCCCC [Compound 17-8, 2-(Di((Z)-octadec-9-en-1-yl)amino)ethan-1-ol]	–	Total flux (Luc expression), comparison in words over the time points of the table named [2]: substantially higher flux than compositions including Compounds 17-2, 17-3, and 17-7
CCCCCCCCCCCCN(CCCCCCCCCCCC)CCN1CCNCC1 [Compound 19-2, N-Dodecyl-N-(2-(piperazin-1-yl)ethyl)dodecan-1-amine]	–	Total flux (Luc expression), comparison in words over the time points of the table named [2]: lowest total flux
CCCCCCCCCN(CCCC(=O)OCCCCC)CCC1CCCN(C(=O)CN(CCCCCCCCC)CCN(CCCCCCCCC)CCCCCCCCC)C1 (stereo not drawn) [Compound 80, Pentyl 4-((2-(1-(N-(2-(dinonylamino)ethyl)-N-nonylglycyl)piperidin-3-yl)ethyl)(nonyl)amino)butanoate]	1.74	–
CCCCC/C=C\C/C=C\CCCCCCCCN(CCCCCCCC/C=C\C/C=C\CCCCC)CCN1CCN(CCCCCCCCCCCC)CC1 [Compound 19-6, (9Z,12Z)—N-(2-(4-Dodecylpiperazin-1-yl)ethyl)-N-((9Z,12Z)-octadeca-9,12-dien-1-yl)octadeca-9,12-dien-1-amine]	–	Total flux (Luc expression), comparison in words over the time points of the table named [2]: next highest flux
CCCCC/C=C\C/C=C\CCCCCCCCN(CCO)CCCCCCCCCCCC [Compound 17-4, 2-(Dodecyl((9Z,12Z)-octadeca-9,12-dien-1-yl)amino)ethan-1-ol]	–	Total flux (Luc expression), comparison in words over the time points of the table named [2]: substantially higher flux than compositions including Compounds 17-2, 17-3, and 17-7
CCCCCCCCCN(CCCCCCCCC)CCC1CCCN(C(=O)CN(CCCCCCCCC)CCN(CCCCCCCCC)CCCCCCCCC)C1 (stereo not drawn) [Compound 73, 2-((2-(Dinonylamino)ethyl)(nonyl)amino)-1-(3-(2-(dinonylamino)ethyl)piperidin-1-yl)ethan-1-one]	3.93	–
CCCCCCCCCN(CCCC(=O)OCCCCC)CCC(=O)N1CCN(C(=O)CCN(CCCCCCCCC)CCN(CCCCCCCCC)CCCCCCCCC)CC1 [Compound 62, Pentyl 4-((3-(4-(3-((2-(dinonylamino)ethyl)(nonyl)amino)propanoyl)piperazin-1-yl)-3-oxopropyl)(nonyl)amino)butanoate]	0.97	–
CCCCCCCCCCCCN(CCCCCCCCCCCC)CCN(CCCCCCCCCCCC)CCN1CCN(CCN(CCCCCCCCCCCC(=O)OC)CCCCCCCCCCCC(=O)OC)CC1 [Compound 16, Dimethyl 12,12′-((2-(4-(2-((2-(didodecylamino)ethyl)(dodecyl)amino)ethyl)piperazin-1-yl)ethyl)azanediyl)didodecanoate]	–	hEPO expression at each time point, comparison in words (Table 6) [3]: lowest hEPO expression; PDI ([4]; formulated with hEPO mRNA): 0.140
CCCCCCCCCN(CCCCCCCCC)CCN(CCCCCCCCC)CC(=O)N1CCC(CN(CCCCCCCCC)CCCC(=O)OCCCCC)C1 (stereo not drawn) [Compound 82, Pentyl 4-(((1-(N-(2-(dinonylamino)ethyl)-N-nonylglycyl)pyrrolidin-3-yl)methyl)(nonyl)amino)butanoate]	3.62	–
CCCCCCCCCCCCN(CCCCCCCCCCCC)CCN(CCCCCCCCCCCC)CC(=O)N1CC2CC1CN2C(=O)CN(CCCCCCCCC)CCCCCCCCC (stereo not drawn) [Compound 43, 2-((2-(Didodecylamino)ethyl)(dodecyl)amino)-1-(5-(dinonylglycyl)-2,5-diazabicyclo[2.2.1]heptan-2-yl)ethan-1-one]	–	Lipid/MC3 Luc CD-1 (mice) [5]: 0.34; PDI [4, 6]: 0.220; Size (nm) ([4]; Table 1, lipid:DOPE:Chol:PEG-DMG 40:20:38.5:1.5, Luc mRNA, MC3 standard formulation): 99.0 nm
CCCCCCCCCN(CCCCCCCCC)CCN(CCCCCCCCC)CCC1CCN(C(=O)CN(CCCCCCCCC)CCCCCCCCC)CC1 [Compound 50, 2-(Dinonylamino)-1-(4-(2-((2-(dinonylamino)ethyl)(nonyl)amino)ethyl)piperidin-1-yl)ethan-1-one]	–	Lipid/MC3 Luc CD-1 (mice) [5]: 0.01; PDI [4, 6]: 0.190
CCCCCCCCCN(CCCCCCCCC)CCN(CCCCCCCCC)CC(=O)N1CCC(CN(CCCCCCCCC)CCCCCCCCC)C1 (stereo not drawn) [Compound 70, 2-((2-(Dinonylamino)ethyl)(nonyl)amino)-1-(3-((dinonylamino)methyl)pyrrolidin-1-yl)ethan-1-one]	1.77	–
CCCCCCCCCN(CCCOC(=O)CCCCC)CCCC1CCN(C(=O)CCN(CCCCCCCCC)CCN(CCCCCCCCC)CCCCCCCCC)CC1 [Compound 87, 3-((3-(1-(3-((2-(Dinonylamino)ethyl)(nonyl)amino)propanoyl)piperidin-4-yl)propyl)(nonyl)amino)propyl hexanoate]	0.80	–
